Values of other authors, collected in patent US20210338635A1, “Dosage Regimen for the Treatment of Multiple Sclerosis with a S1P Receptor Modulator” (Argentum Pharmaceuticals LLC, priority 2020, published 2021).

Key:
[1] = administration of 1.25 mg; healthy patients; treatment initiation
[2] = humans; relapsing multiple sclerosis, oral

| Compound | decrease in heart rate [1] | efficacy in the treatment of multiple sclerosis [2] |
| --- | --- | --- |
| CCc1cc(/C(C)=N/OCc2ccc(C3CCCCC3)c(C(F)(F)F)c2)ccc1CN1CC(C(=O)O)C1 [BAF-312, 1-({4-[(1E)-1-({[4-Cyclohexyl-3(trifluoromethyl)phenyl]methoxy}imino)ethyl]-2-ethylphenyl}methyl)azetidine-3-carboxylic acid] | approximately 8 beets/min | – |
| CCCCCCCCc1ccc(CCC(N)(CO)CO)cc1 [FTY720] | – | efficacy in the treatment of multiple sclerosis has been shown in humans |
